Results: patent US7919517B2, “Indazole derivatives” (Kyowa Hakko Kirin Co., Ltd., priority 2003, dated 2011)
Structures can show the parent of a compound that is named as a salt.

What was measured:
Format in all cases: cell-based
[1] = tested on: human chronic myeloid leukemia cell line K562; experiment: Cytostatic activity on leukemia cell line K562 (WST-1); settings: 72 hours, K562 cells; for inhibition at 10 µM: Homo sapiens, 10 μmol/L, read-out: cytostatic rate K562 (%) (10 μmol/L)
Method: (§1) The cytostatic rates of a test compound on human acute myeloid leukemia cell lines MV-4-11 and ML-1, and human chronic myeloid leukemia cell line K562 were determined in the following manner.
(§2) Each cell was cultured using Roswell Park Memorial Institute's Medium (RPMI) 1640 (Gibco, Catalog No. 11875-093) containing 10% fetal bovine serum (Gibco, Catalog No. 10437-028) and 1% penicillin/streptomycin (1:1) (Gibco, Catalog No. 15140-122). Each 80 μL of the MV-4-11 cell having a concentration of 7.5×10^4 cells/mL (or the ML-1 cell or K562 cell having a concentration of 2.5×10^4 cells/mL) was inoculated to wells of a TC MICROWELL 96U plate (Nalge Nunc International, Catalog No. 163320) and was cultured in a 5% carbon dioxide gas incubator at 37° C. for 4 hours. As a blank, only RPMI medium (80 μL) was added to a well. Each 20 μL of a solution of the test compound in dimethyl sulfoxide (DMSO) which was prepared to make the final concentration to 10 μmol/L, was added to the MV-4-11 cell, ML-1 cell and K562 cell, respectively. Each 20 μL of DMSO was added to the control well and the blank well to […]. After adding the test compound, the cells were incubated in a 5% carbon dioxide gas incubator at 37° C. for 72 hours. After adding 20 μL of WST-1 reagent {4-[3-(4-iodophenyl)-2-(4-nitrophenyl)-2H-5-tetrazolio]-1,3-benzene disulfonate sodium salt} (Roche Diagnostics K.K., Catalog No. 1644807) diluted to 50% with RPMI medium, the cells were further incubated at 37° C. for 2 hours. Then, the absorbances at 450 nm (reference wavelength: 690 nm) were determined with a microplate spectrophotometer SPECTRA max 340PC (Molecular Devices Corporation). The relative growth (%) of a well to which the test compound had been added was determined while setting the absorbance of a well to which not the test compound but DMSO alone had been added (control) at 100% and that of a well containing RPMI medium alone at 0%. The cytostatic rate (%) of the test compound was determined by subtracting the calculated relative growth from 100.

[2] = tested on: human colon cancer cell line Colo205; experiment: Cytostatic activity on solid carcinoma cell line Colo205 (WST-1); settings: 72 hours, Colo205 cells; for inhibition at 10 µM: Homo sapiens, COLO 205, 10 μmol/L, read-out: cytostatic rate Colo205 (%) (10 μmol/L)
Method: as §2
The cytostatic rate of a test compound on the human colon cancer cell line Colo205 was determined in the following manner.
The cell was cultured using Roswell Park Memorial Institute's Medium (RPMI) 1640 (Gibco, Catalog No. 11875-093) containing 10% fetal bovine serum (Gibco, Catalog No. 10437-028) and 1% penicillin/streptomycin (1:1) (Gibco, Catalog No. 15140-122). Each 80 μL of the Colo205 having a concentration of 1.25×10^4 cells/mL was inoculated to wells of a TC MICROWELL 96F plate (Nalge Nunc International, Catalog No. 167008) and was cultured in a 5% carbon dioxide gas incubator at 37° C. for 24 hours. As a blank, only RPMI (80 μL) was added to a well. Each 20 μL of a solution of the test compound in DMSO which was prepared to make the final concentration to 10 μmol/L, was added to the Colo205 cell. Each 20 μL of DMSO was added to the control well and the blank well to […]. After adding the test compound, the cell was incubated in a 5% carbon dioxide gas incubator at 37° C. for 72 hours. The cytostatic rate (%) was then determined in the same way as the leukemia cell lines.

[3] = tested on: human acute myeloid leukemia cell line ML-1; experiment: Cytostatic activity on leukemia cell line ML-1 (WST-1); settings: 72 hours, ML-1 cells; for inhibition at 10 µM: Homo sapiens, ML1, 10 μmol/L, read-out: cytostatic rate ML-1 (%) (10 μmol/L)
Method: as §1, §2

[4] = tested on: human acute myeloid leukemia cell line MV-4-11; experiment: Cytostatic activity on leukemia cell line MV-4-11 (WST-1); settings: 72 hours, MV-4-11 cells; for inhibition at 10 µM: Homo sapiens, MV4-11, 10 μmol/L, read-out: cytostatic rate MV-4-11 (%) (10 μmol/L)
Method: as §1, §2

| Structure (SMILES) | inhibition at 10 µM [1] [%] | inhibition at 10 µM [2] [%] | inhibition at 10 µM [3] [%] | inhibition at 10 µM [4] [%] | cytostatic rate K562 (%) (10 μmol/L) [1] | cytostatic rate Colo205 (%) (10 μmol/L) [2] | cytostatic rate ML-1 (%) (10 μmol/L) [3] | cytostatic rate MV-4-11 (%) (10 μmol/L) [4] |
| --- | --- | --- | --- | --- | --- | --- | --- | --- |
| CN1CCC(C(=O)N2CCN(C(=O)c3ccc(/C=C/c4n[nH]c5ccccc45)cc3)CC2)CC1 [Compound 143, (E)-4-[(1-methylpiperidin-4-yl)carbonyl]-1-{4-[2-(1H-indazol-3-yl)vinyl]benzoyl}piperazine] | 95 | 92 | 84 | 100 |  |  |  |  |
| N[C@@H]1CCN(C(=O)c2ccc(/C=C/c3n[nH]c4ccccc34)cc2)C1 [Compound 158, (R)-(E)-1-{4-[2-(1H-Indazol-3-yl)vinyl]benzoyl}-3-aminopyrrolidine] | 90 | 91 | 80 | 98 |  |  |  |  |
| CC(C)N1CCN(C(=O)c2ccc(/C=C/c3n[nH]c4ccccc34)cc2)CC1 [Compound 107, (E)-1-{4-[2-(1H-indazol-3-yl)vinyl]benzoyl}-4-isopropylpiperazine hydrochloride] | 91 | 84 | 77 | 98 |  |  |  |  |
| CC1(C(=O)N2CCN(C(=O)c3ccc(/C=C/c4n[nH]c5ccccc45)cc3)CC2)CC1 [Compound 77, (E)-4-(1-methylcyclopropanecarbonyl)-1-{4-[2-(1H-indazol-3-yl)vinyl]benzoyl}piperazine] | 95 | 86 | 80 | 98 |  |  |  |  |
| O=C(c1ccncc1)N1CCN(C(=O)c2ccc(/C=C/c3n[nH]c4ccccc34)cc2)CC1 [Compound 44, (E)-1-{4-[2-(1H-indazol-3-yl)vinyl]benzoyl}-4-(isonicotinoyl)piperazine] | 92 | 91 | 85 | 98 |  |  |  |  |
| CS(=O)(=O)Nc1cccc(/C=C/c2n[nH]c3ccccc23)c1 [Compound 27, (E)-N-{3-[2-(1H-indazol-3-yl)vinyl]phenyl}methanesulfonamide] | 55 | 80 | 77 | 94 |  |  |  |  |
| CN(C)C(=O)C1CCN(C(=O)c2ccc(/C=C/c3n[nH]c4ccccc34)cc2)CC1 [Compound 92, (E)-N,N-dimethyl-1-{4-[2-(1H-indazol-3-yl)vinyl]benzoyl}piperidine-4-carboxamide] | 89 | 89 | 88 | 98 |  |  |  |  |
| CC(=O)N1CCN(C(=O)c2ccc(/C=C/c3n[nH]c4ccccc34)cc2C)CC1 [Compound 73, (E)-4-acetyl-1-{2-methyl-4-[2-(1H-indazol-3-yl)vinyl]benzoyl}piperazine] | 68 | 89 | 87 | 97 |  |  |  |  |
| O=C(c1ccc(/C=C/c2n[nH]c3ccccc23)cc1)N1CCN(CCO)CC1 [Compound 105, (E)-1-{4-[2-(1H-indazol-3-yl)vinyl]benzoyl}-4-(2-hydroxyethyl)piperazine] | 90 | 88 | 85 | 96 |  |  |  |  |
| CC(C)C(=O)N1CCN(C(=O)c2ccc(/C=C/c3n[nH]c4ccccc34)cc2)CC1 [Compound 56, (E)-4-isobutyryl-1-{4-[2-(1H-indazol-3-yl)vinyl]benzoyl}piperazine] | 87 | 88 | 78 | 98 |  |  |  |  |
| O=C(c1ccc(/C=C/c2n[nH]c3ccccc23)cc1)N1CCCNCC1 [Compound 85, (E)-1-{4-[2-(1H-indazol-3-yl)vinyl]benzoyl}homopiperazine dihydrochloride] | 90 | 89 | 78 | 99 |  |  |  |  |
| CC(C)(CO)C(=O)N1CCN(C(=O)c2ccc(/C=C/c3n[nH]c4ccccc34)cc2)CC1 [Compound 72, (E)-4-(3-hydroxy-2,2-dimethylpropionyl)-1-{4-[2-(1H-indazol-3-yl)vinyl]benzoyl}piperazine] | 95 | 93 | 80 | 100 |  |  |  |  |
| O=C(c1ccc(/C=C/c2n[nH]c3ccccc23)cc1)N1CCC(O)CC1 [Compound 87, (E)-1-{4-[2-(1H-indazol-3-yl)vinyl]benzoyl}-4-hydroxypiperidine] | 76 | 86 | 88 | 99 |  |  |  |  |
| CCOC(=O)N1CCN(C(=O)c2ccc(/C=C/c3n[nH]c4ccccc34)cc2)CC1 [Compound 32, (E)-1-{4-[2-(1H-indazol-3-yl)vinyl]benzoyl}-4-ethoxycarbonylpiperazine] | 86 | 85 | 80 | 94 |  |  |  |  |
| O=C(NC1CCN(C(=O)c2ccc(/C=C/c3n[nH]c4ccccc34)cc2)CC1)N1CCOCC1 [Compound 99, (E)-1-{4-[2-(1H-indazol-3-yl)vinyl]benzoyl}-4-(morpholinocarbonylamino)piperidine] | 94 | 95 | 86 | 97 |  |  |  |  |
| CNCCNC(=O)c1ccc(/C=C/c2n[nH]c3ccccc23)cc1 [Compound 112, (E)-N-[2-(methylamino)ethyl]-4-[2-(1H-indazol-3-yl)vinyl]benzamide hydrochloride] | 81 | 88 | 83 | 98 |  |  |  |  |
| O=C(c1ccc(/C=C/c2n[nH]c3ccccc23)cc1)N1CCN(O)CC1 [Compound 147, (E)-4-Hydroxy-1-{4-[2-(1H-indazol-3-yl)vinyl]benzoyl}piperazine] | 77 | 83 | 89 | 99 |  |  |  |  |
| CC(C)NC(=O)CN1CCN(C(=O)c2ccc(/C=C/c3n[nH]c4ccccc34)cc2)CC1 [Compound 135, (E)-1-{4-[2-(1H-indazol-3-yl)vinyl]benzoyl}-4-[2-oxo-2-(isopropylamino)ethyl]piperazine dihydrochloride] | 93 | 87 | 79 | 99 |  |  |  |  |
| O=C(c1ccc(/C=C/c2n[nH]c3ccccc23)cc1)N1CCN(C(=O)N2CCOCC2)CC1 [Compound 41, (E)-1-{4-[2-(1H-indazol-3-yl)vinyl]benzoyl}-4-(morpholinocarbonyl)piperazine] | 95 | 90 | 83 | 97 |  |  |  |  |
| CS(=O)(=O)N1CCN(C(=O)c2ccc(/C=C/c3n[nH]c4ccccc34)cc2)CC1 [Compound 47, (E)-1-{4-[2-(1H-indazol-3-yl)vinyl]benzoyl}-4-(methanesulfonyl)piperazine] | 88 | 91 | 88 | 97 |  |  |  |  |
| O=C(c1ccc(/C=C/c2n[nH]c3ccccc23)cc1)N1CCN(c2c(N3CCOCC3)c(=O)c2=O)CC1 [Compound 156, (E)-3-morpholino-4-{[4-(2-(1H-indazol-3-yl)vinyl)benzoyl]piperazin-1-yl}-3-cyclobutene-1,2-dione] |  |  |  |  | 94 | 92 | 85 | 99 |
